How the values were obtained:
[1] = system: MDA-MB-231 (breast cell carcinoma); test: Western blot analysis of ER stress induction in MDA-MB-231 cells; assay type: cell-based; details: MDA-MB-231, 18 hours (legend: 16 hours)
Method: Induction of cell death and release of ICD danger signals occurs concomitant with initiation of an ER stress response. Two Tissue Factor positive cell lines, HPAFII (pancreatic carcinoma) and MDA-MB-231 (breast cell carcinoma) were exposed to tisotumab vedotin ADC, an Isotype-MMAE ADC (H00-MMAE, IgG1 MMAE), or free MMAE for 18 hours and induction of ER stress monitored by western blot analysis. Phosphorylation of inositol-requiring transmembrane kinase/endonuclease 1 (IRE1) was detected after treatment with tisotumab vedotin ADC or MMAE free drug (FIG. 6). […] The ability for auristatins to prime the immune system to recognize tumor antigens opens the door for a myriad of combinatorial therapeutic options.

[2] = system: MDA-MB-231 cells (breast adenocarcinoma); test: MDA-MB-231 xenograft model in humanized NSG mice; assay type: in vivo; details: IV, weekly
Method: Mice were subcutaneously inoculated with 5×10^6 MDA-MB-231 cells (breast adenocarcinoma; American Tissue Culture Collection (ATCC), cat. no. HTB-26), in 100 μL phosphate-buffered saline (PBS). Before inoculation, cells were cultured in DMEM with high glucose and HEPES without L-glutamine (Lonza, cat. no. BE12-[…]), 10% (v/v) donor bovine serum with iron New Zealand Origin (Thermo Fisher Scientific, DBSI, cat. no. 10371-029), 2 mM L-glutamine (Lonza, cat. no. BE17-[…]), 1 mM Na-pyruvate (Lonza, cat. no. BE13-[…]), MEM non-essential amino acids (Life Technologies, cat. no. 11140) and 1% (v/v) penicillin/streptomycin (Lonza, cat. no. DE17-[…]), in CellSTACK culture chambers (Corning, cat. no. 3313). Tumor size was determined by caliper measurement at least two times a week and tumor volume was calculated as 0.52×length×width^2. […] The first dose of the anti-PD-1 antibody (i.e., pembrolizumab) was 10 mg/kg, followed by 5 mg/kg every five days for a maximum of six treatments. […] The IgG1 isotype control antibody is the b12 antibody which is known to bind to HIV-1 gp120. […] Mice were housed in individually ventilated (IVC) cages, five mice per cage and identified by ear tags. […] Statistical comparison of tumor burden was performed using Mann-Whitney analysis on the last day that all treatment groups were intact. Kaplan-Meier analysis was performed based on tumor volume (>500 mm^3).

[3] = system: murine tumor cells that stably express human TF; test: Syngeneic tumor model: immunization with drug-killed human TF positive murine tumor cells, then tumor challenge; assay type: in vivo, Balb/c mice; details: mice immunized with tumor cells killed by 1-5 μg per ml tisotumab vedotin or 100 nM MMAE
Method: Mouse tumor cells are transfected with plasmid constructs encoding human tissue factor (TF) and sgRNA-guided Cas9 nuclease (sgRNA/Cas9) to generate a murine cell line that expresses the human TF. Fluorescence activated cell sorting (FACS) yields a clonal population of murine tumor cells that stably express human TF, these cells are then treated with 1 μg to 5 μg per ml of tisotumab vedotin or 100 nM of MMAE for 4 days. In order to prepare dying cells for immunization, treated murine tumor cells are overlaid atop Histopaque, and centrifuged at 2000 g for 30 minutes. Dead and dying cells are pelleted underneath the Histopaque layer, and viability assessed by trypan blue exclusion. A sample with approximately <20% live cells as measured by trypan blue exclusion is obtained. Flash-frozen tumor cells are prepared by submerging the cells in liquid nitrogen for 10 seconds, followed by immersion in 37° C. water until completely thawed. The liquid nitrogen freeze-thaw process is repeated 5 times. Dead and dying human TF positive tumor cells are resuspended in phosphate buffered saline (PBS) and 2×10^6 cells are injected into the peritoneum of immune-competent Balb/c mice. Seven days later, mice receive a second immunization with dead and dying cells prepared in the same manner.
Fourteen days after initial immunization with the dead and dying human TF positive tumor cells, mice are subcutaneously implanted with 5×10^6 wild-type tumor cells and monitored for tumor growth. […] As these effects occur in the absence of any administered therapeutic agent, the administration of cells killed by tisotumab vedotin or MMAE is sufficient to generate long-lasting protective immune memory against subsequent tumor cell challenge. Protective immune memory is amplified by treating these mice with tisotumab vedotin in combination with an antibody that binds to murine PD-1.

[4] = system: relapsed, recurrent, and/or metastatic cervical cancer; test: Phase I/II trial of tisotumab vedotin (NCT02001623); assay type: in vivo, human
Source text: Further investigation of tisotumab vedotin as a monotherapy and in combination with immunotherapy (e.g., an anti-PD-1 antibody) in a larger cohort of patients with cervical cancer is needed.
Three adverse events of special interest were identified during treatment with tisotumab vedotin alone in the Phase IIa trial discussed above: 1) ocular adverse events; 2) adverse events of peripheral neuropathy; and 3) adverse events of bleeding. […] In the present trial, in order to prevent ocular AEs, all subjects in both treatment groups (i.e., tisotumab vedotin alone or in combination with pembrolizumab) must adhere to the following ocular pre-medication guidelines: 1) use of preservative-free lubricating eye drops during the whole treatment phase of the trial (i.e., from first dose of tisotumab vedotin until the safety follow-up visit). Lubricating eye drops should be administered according to the product prescribing information; 2) it is recommended not to wear contact lenses while treated with tisotumab vedotin from the first dose until a safety follow-up visit; 3) use of refrigerator-based eye cooling pads during infusion, e.g. THERA PEARL Eye Mask or similar, to be applied immediately before infusion in accordance with the instructions provided with the eye cooling pads; 4) administration of local ocular vasoconstrictor before infusion (brimonidine tartrate 0.2% eye drops or similar, 3 drops in each eye immediately prior to start of infusion; otherwise to be used in accordance with the product prescribing information). […] Steroid eye drops should be administered as 1 drop in each eye, 3 times daily, for 3 days, or used in accordance with the product prescribing information.
For AEs of peripheral neuropathy (including neuropathy peripheral; peripheral sensory neuropathy; peripheral motor neuropathy; polyneuropathy): Peripheral neuropathy is a well-known adverse reaction to treatment with platinum and taxane based chemotherapies as well as MMAE-based ADCs and is reported in approximately 35% of subjects who received treatment with tisotumab vedotin. […] A mitigation plan, including dose reduction (See Table 4) and dose delays, is in place to control the rates and severity of peripheral neuropathy observed in subjects treated with tisotumab vedotin. For Grade 2 and 3, or initial or worsening of pre-existing condition, hold tisotumab vedotin until event has improved to ≤grade 1 then reduce next dose according to dose reduction shown in Table 4. No action is required to be taken with pembrolizumab. For ≥Grade 4, permanently discontinue tisotumab vedotin. Contact sponsor to discuss continuation of pembrolizumab alone.
For AEs of bleeding: Bleeding events are considered of special interest due to the mode of action of tisotumab vedotin. […] Dose modification and toxicity management guidelines are in place (Table 7).

[5] = subjects who received tisotumab vedotin

Which results are given for “tisotumab vedotin: antibody-drug conjugate comprising an antibody that binds to tissue factor (TF), a protease-cleavable linker, and the microtubule disrupting agent MMAE”?
ATF4 cleavage (PERK pathway) [1]: upregulation of ATF4 cleavage; phosphorylation of IRE1 [1]: detected; phosphorylation of JNK [1]: increased phosphorylation; tumor burden as assessed by tumor volume ([2]; tisotumab vedotin alone 0.5 mg/kg): efficiently reduced tumor burden; tumor burden as assessed by tumor volume ([2]; tisotumab vedotin alone 1.0 mg/kg): efficiently reduced tumor burden; survival after challenge with wild-type tumor cells [3]: increased survival; tumor growth after challenge with wild-type tumor cells [3]: delayed tumor growth; efficacy ([4]; 2.0 mg/kg tisotumab vedotin): robust efficacy; safety profile ([4]; 2.0 mg/kg tisotumab vedotin): manageable safety profile; bleeding events: epistaxis, frequency ([4]; in vivo): most common reported AE; bleeding events: epistaxis, grade ([4]; in vivo): nearly all of the cases are grade 1; clinically relevant perturbations in aPTT or prothrombin time (PT) ([4]; in vivo): have not been observed; peripheral neuropathy as cause of permanent discontinuation [4, 5]: leading cause of permanently discontinuation; peripheral neuropathy, grade of reported cases [4, 5]: majority of the reported cases are grade 1-2; peripheral neuropathy, share of subjects [4, 5]: approximately 35%; ocular AEs: grade 1-2 conjunctivitis ([4]; tisotumab vedotin alone): frequently reported

Reference: patent US12324841B2, “Methods of treating cancer with a combination of an anti-PD-1 antibody and an anti-tissue factor antibody-drug conjugate” (GENMAB A/S, priority 2018, dated 2025)
